Measured values published in patent US8940798B2, “Compounds useful for treating and/or preventing disease-associated bone loss” (Centre National de al Recherche Scientifique (CNRS), priority 2011, dated 2015).

Experiments:
Dock5-DHR2 = target: T1, Dock5-DHR2 (Mus musculus, UniProt B2RY04); test: Yeast exchange assay screening for Dock5 inhibitors; assay type: cell-based; settings: screen of 2,640 compounds at 100 μM, 1% DMSO
T1 construct: Dock5 DHR2 domain (aminoacids E1119 to L1667) was cloned into pEGFP (Clontech) or myc tagged in pRs426Met (21); expressed in transfected cells; host or cells: HEK-293T cells
T1 sequence (B2RY04 1119-1667): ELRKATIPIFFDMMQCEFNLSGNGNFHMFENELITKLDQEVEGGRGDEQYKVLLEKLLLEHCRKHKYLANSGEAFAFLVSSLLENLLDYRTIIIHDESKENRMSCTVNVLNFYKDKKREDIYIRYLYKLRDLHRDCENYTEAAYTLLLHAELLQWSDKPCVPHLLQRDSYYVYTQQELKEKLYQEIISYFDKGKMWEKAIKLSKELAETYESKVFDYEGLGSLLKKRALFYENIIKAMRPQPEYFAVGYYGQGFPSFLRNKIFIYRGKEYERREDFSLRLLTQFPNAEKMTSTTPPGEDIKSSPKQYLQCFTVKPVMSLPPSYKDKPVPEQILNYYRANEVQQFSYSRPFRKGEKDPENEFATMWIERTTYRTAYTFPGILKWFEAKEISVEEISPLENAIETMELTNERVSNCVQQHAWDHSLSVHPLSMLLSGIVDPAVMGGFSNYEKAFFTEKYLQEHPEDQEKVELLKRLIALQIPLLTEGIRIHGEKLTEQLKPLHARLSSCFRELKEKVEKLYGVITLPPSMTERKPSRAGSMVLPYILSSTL
From the text: FIGS. 5A-5H: Inhibition of bone resorption by an inhibitor of Rac1 activation by Dock5. (FIG. 5A) Principle of the yeast exchange assay used to identify inhibitors of Dock5 exchange activity. Wild type Rac1 is fused to LexA DNA binding domain (LexA) and its effector Kinectin (Kin) to GAL4 activation domain (GAD). Expression of Dock5-DHR2 activates Rac1, which binds to kinectin, leading to the expression of his3 and then yeast […] for histidine. Inhibitors of Dock5-DHR2 revert Rac1 activation. (FIG. 5B) Growth curves of yeasts expressing Rac1 and Kinectin with (open triangles) and without (dots) Dock5-DHR2, in medium complemented (plain lines) or not (dotted lines) with histidine. (FIG. 5C) Structure of N-(3,5-dichlorophenyl)benzensulfonamide (C21). (FIG. 5D) Western blots showing total and GTPbound Rac1 (upper panels) and GFP and GFP-fused Dock5-DHR2 in extracts of 293T cells treated for 1 hour with the indicated concentrations of C21 in the presence of 1% DMSO. (FIG. 5E) Western blots showing total and GTP-bound Rac1 (upper panels) and GFP and GFP-fused TrioN in extracts of 293T cells treated as in FIG. 5D. (FIG. 5F) Number of OCs (OC) after a 24-hour incubation with the indicated concentrations of C21, expressed as a % of DMSO control (0 μM C21). […] (FIG. 5G) CTx concentration in the medium of OCs on bone in the absence (O) or presence of 25 μM C21. […]

B16F10 melanoma cells = test: Bone metastasis model, B16F10 melanoma cells expressing luciferase in C57B1/6 mice; assay type: in vivo, mouse; settings: 15 mg/d/kg intraperitoneal every day for 12 days; measured at days 7, 10 and 12
From the text: The metastatic tumor cells in the bone matrix produce factors that directly or indirectly stimulate osteoclast differentiation and bone resorbing activity. In return, by resorbing it, the osteoclasts liberate growth factors embedded within the bone matrix that will stimulate the proliferation of metastatic cells. […] C21 being an efficient inhibitor of bone resorption, it was further assayed for its ability to slow down metastatic cell proliferation within the bone marrow. B16-F10 cells are derived from a C57B1/6 mouse melanoma and have a strong tropism for the bone. They are classically used as a model for bone metastases.
19 C57B1/6 mice received an injection of 10^5 B16F10 melanoma cells expressing luciferase in the left ventricle, 9 mice received the C21 compound (test group), 15 mg/d/kg solubilized in 100 μl of 5% EtOH and 4% solutol, every days for 12 days, as an intraperitoneal injection, and the other 10 mice (control group) received 100 μl of 5% ethanol/4% solutol vehicle solution.
The proliferation of B16F10 cells was followed by their bioluminescence, measured at days 7, 10 and 12 after injection of the cells (FIG. 20).

osteoclasts (OCs) = test: Resorption of calcium-phosphate matrices by OCs; assay type: cell-based, mouse; settings: 25 μM C21 (not shown)
Protocol: BMMs were isolated from long bones of 4- to 8-week-old animals as described (16) and OCs obtained by culturing BMMs with RANKL (100 ng/ml) and M-CSF (10 ng/ml) (Peprotech) for 5 days. RAW264.7 cells were grown for 5 days with RANKL (50 ng/ml) to obtain OCs. For resorption, OCs were differentiated in multiwell chambers or on coverslips coated with calcium phosphate (Osteologic Biocoat, BD Bioscience) or in 96-well plates containing a bovine bone slice (IDS Nordic Bioscience). Mesenchymal stem cells (MSCs) were isolated from mouse bone marrow and grown as described (18).
OCs in multiwell Osteologic Biocoat were fixed at day 7 of differentiation and calciumphosphate was stained with von Kossa as described (BRAZIER et al, 2009, see above). The entire well surface was imaged using a Zeiss AxioimagerZ1 microscope. Well image was reconstituted and resorbed areas were measured using MetaMorph 7.0 software (Molecular Devices). For bone resorption assays, OCs were derived from BMMs in 96-well plates containing bovine bone slices. At day 5 of differentiation, medium was changed with fresh medium. After 2 days, CTx concentrations were measured using Crosslap (IDS Nordic Bioscience). […]

O=S(=O)(Nc1cc(Cl)cc(Cl)c1)c1ccccc1 [C21, N-(3,5-dichlorophenyl)benzenesulfonamide]
Inhibition of growth of Dock5 DHR2-expressing yeasts in Histidine deprived medium without affecting growth in Histidine complemented medium (Dock5-DHR2): identified | Proliferation of B16F10 cells, bioluminescence in the tibia (B16F10 melanoma cells): markedly slowed down | Resorption of calcium-phosphate matrices (osteoclasts (OCs)): efficiently inhibits
